Experimental data reported in patent publication US20250277187A1, “A METHOD FOR PRODUCING INDUCED STEROIDOGENIC CELLS AND USE THEREOF IN CELL THERAPY” (TECHNISCHE UNIVERSITAET DRESDEN, priority 2021, published 2025).

System: cells infected with the SF1 gene or the SF1+MC2R+MRAP genes
Experiment: ACTH stimulation of hiSCs: cortisol and aldosterone secretion
Format: cell-based, human
Conditions: ACTH 0 nM, 10 nM

adrenocorticotropic hormone (SYSMEHFRWGKPVGKKRRPVKVYPNGAEDESAEAFPLEF; Corticotropin; UniProt P01189 138-176, looked up) [ACTH, hormone secreted by the anterior pituitary gland, used to stimulate the cells]
production/secretion of cortisol (1 uM (FIG. 15B)): increasing with administration of increasing ACTH dosage | production/secretion of aldosterone (1 uM (FIG. 15C)): increasing with administration of increasing ACTH dosage
